Measurements from patent US9180129B2, “Combination of lapatinib and trametinib” (NOVARTIS AG, priority 2010, dated 2015).
Where two headings read alike, the source gives them in different places.

How the values were obtained:
[1] = test system: NCI-H508; test: Cell growth inhibition assay, NCI-H508 (colorectal); format: cell-based; settings: Homo sapiens, 72 h, 3 days, read-out: Single agent IC50 (μM), mean ± STD
Description: (§1) All lines were kept in a humidified incubator at 37° C. in 95% air and 5% CO2. JIMT-1 is a cell line established from a tumor of a patient with trastuzumab-resistant breast cancer (Tanner et al, Mol Cancer Ther 2004; 3:1585-92).
(§2) All cells were cultured for a minimum of 72 hours prior to cell plating. Cells were seeded in a 96-well tissue culture plate (NUNC 136102) of RPMI media containing 10% FBS for all cell lines at 2,000 cells per well except KPL4, which was plated in DMEM containing 5% FBS at 500 cells per well. […] Cells were incubated in the presence of compounds for 3 days. ATP levels were determined by adding Cell Titer Glo® reagent (Promega) according to the manufacturer's protocol. Briefly, Cell Titer Glo® reagent was added to each plate, incubated for 20 minutes then the luminescent signal was read on the SpectraMax L plate reader with a 0.5 sec integration time.
(§3) Inhibition of cell growth was estimated after treatment with compound or a combination of compounds for three days and comparing the signal to cells treated with vehicle (DMSO). Cell growth was calculated relative to vehicle (DMSO) treated control wells. […]

[2] = test system: T84; test: Cell growth inhibition assay, T84 (colorectal); format: cell-based; settings: Homo sapiens, 72 h, 3 days, read-out: Single agent IC50 (μM), mean ± STD
Description: as §1, §2, §3

[3] = test system: Capan-1; test: Cell growth inhibition assay, Capan-1 (pancreatic); format: cell-based; settings: Homo sapiens, 72 h, 3 days, read-out: Single agent IC50 (μM), mean ± STD
Description: as §1, §2, §3

[4] = test system: SUIT2; test: Cell growth inhibition assay, SUIT2 (pancreatic); format: cell-based; settings: Homo sapiens, SUIT-2, 72 h, 3 days, read-out: Single agent IC50 (μM), mean ± STD
Description: as §1, §2, §3

[5] = test system: KPL4; test: Cell growth inhibition assay, KPL4 (breast HER2+); format: cell-based; settings: Homo sapiens, KPL4, 72 h, 3 days, read-out: Single agent IC50 (μM), mean ± STD
Description: All cells were cultured for a minimum of 72 hours prior to cell plating. […] Cells were incubated in the presence of compounds for 3 days.
Cell growth was calculated relative to vehicle (DMSO) treated control wells.
In general, a CI value <0.9, between 0.9 and 1.1, or >1.1 indicates synergy, additivity and antagonism, respectively. In general, the smaller the CI number, the greater is the strength of synergy.

[6] = test system: three pancreatic cancer cell lines; test: Cell growth inhibition assay, pancreatic lines; format: cell-based, Human; settings: HPAF-11, Capan-1 and SUIT2
Description: as §1, §2, §3

[7] = test system: LS174T; test: Cell growth inhibition assay, LS174T (colorectal); format: cell-based; settings: Homo sapiens, 72 h, 3 days, read-out: Single agent IC50 (μM), mean ± STD
Description: as §1, §2, §3

[8] = test system: five colorectal cancer cell lines; test: Cell growth inhibition assay, colorectal lines; format: cell-based; settings: Homo sapiens; span over the five colorectal cancer cell lines of Table 1; read-out: IC50 values, single agent
[9] = test system: CHL1; test: Cell growth inhibition assay, CHL1 (melanoma); format: cell-based; settings: Homo sapiens, CHL-1, 72 h, 3 days, read-out: Single agent IC50 (μM), mean ± STD
Description: as §1, §2, §3

[10] = test system: MDAMB175VII; test: Cell growth inhibition assay, MDAMB175VII (breast HER2−); format: cell-based; settings: Homo sapiens, MDA-MB-175-VII, 72 h, 3 days, read-out: Single agent IC50 (μM), mean ± STD
Description: as §1, §2, §3

[11] = test system: HCC1954; test: Cell growth inhibition assay, HCC1954 (breast HER2+); format: cell-based; settings: Homo sapiens, 72 h, 3 days, read-out: Single agent IC50 (μM), mean ± STD
Description: as §1, §2, §3

[12] = test system: BT474-J4; test: Cell growth inhibition assay, BT474-J4 (breast HER2+, acquired resistance to Compound A); format: cell-based; settings: Homo sapiens, 72 h, 3 days, read-out: Single agent IC50 (μM), mean ± STD
Description: as §1, §2, §3

[13] = test system: SKMEL5; test: Cell growth inhibition assay, SKMEL5 (melanoma); format: cell-based, Human; settings: 3 days, read-out: Single agent IC50 (μM), mean ± STD
Description: as §1, §2
(§4) Inhibition of cell growth was estimated after treatment with compound or a combination of compounds for three days and comparing the signal to cells treated with vehicle (DMSO). Cell growth was calculated relative to vehicle (DMSO) treated control wells. A concentration of the compound that inhibits 50% of control cell growth (IC50) was interpolated using nonlinear regression with the equation, y=(A+(B−A)/(1+(C/x)^D)))), where A is the minimum response (ymin), B is the maximum response (ymax), C is the inflection point of the curve (EC50) and D is the Hill coefficient. […]

[14] = test system: A375 S2; test: Cell growth inhibition assay, A375 S2 (melanoma); format: cell-based; settings: Homo sapiens, A375-S2, 72 h, 3 days, read-out: Single agent IC50 (μM), mean ± STD
Description: as §1, §2, §3

[15] = test system: 647V; test: Cell growth inhibition assay, 647V (bladder); format: cell-based; settings: Homo sapiens, 72 h, 3 days, read-out: Single agent IC50 (μM), mean ± STD
Description: as §1, §2, §3

[16] = test system: HPAF-11; test: Cell growth inhibition assay, HPAF-11 (pancreatic); format: cell-based; settings: Homo sapiens, 72 h, 3 days, read-out: Single agent IC50 (μM), mean ± STD
Description: as §1, §2, §3

[17] = test system: NCI-H747; test: Cell growth inhibition assay, NCI-H747 (colorectal); format: cell-based; settings: Homo sapiens, 72 h, 3 days, read-out: Single agent IC50 (μM), mean ± STD
Description: as §1, §2, §3

[18] = test system: MDA-MB-453; test: Cell growth inhibition assay, MDA-MB-453 (breast HER2+); format: cell-based; settings: Homo sapiens, 72 h, 3 days, read-out: Single agent IC50 (μM), mean ± STD
Description: as §1, §2, §3

[19] = test system: SW780; test: Cell growth inhibition assay, SW780 (bladder); format: cell-based; settings: Homo sapiens, 72 h, 3 days, read-out: Single agent IC50 (μM), mean ± STD
Description: as §1, §2, §3

[20] = test system: JimT-1; test: Cell growth inhibition assay, JimT-1 (breast HER2+, trastuzumab-resistant); format: cell-based, Human; settings: for IC50: Homo sapiens, 72 h, JimT-1, 3 days, read-out: Single agent IC50 (μM), mean ± STD; for sensitivity to cell growth inhibition, in words: JIMT-1 HER2+ breast cancer line
Description: as §1, §2, §4

[21] = test system: BFTC-905; test: Cell growth inhibition assay, BFTC-905 (bladder); format: cell-based; settings: Homo sapiens, 72 h, 3 days, read-out: Single agent IC50 (μM), mean ± STD
Description: as §1, §2, §3

[22] = test system: BT474; test: Cell apoptosis assay, DNA fragmentation, BT474; format: cell-based, Human; settings: 48 hours, Roche Cell Death ELISA, combination at 2 to 1 molar ratio A:B (FIG. 2B)
Description: as §1
(§5) For investigation of the induction of apoptosis, cells were plated at 5,000 cells per well in a 96-well tissue culture plate and allowed to attach for approximately 24 hours. Forty-eight hours after treatment with compounds, levels of apoptosis were estimated using the Roche Cell Death ELISA kit (Cat. No. 11 774 425 001) following the instructions provided by the manufacturer.
(§6) FIG. 1. Dose response curves of cell growth inhibition in HCC1954, MDA-MB-175VII, CHL1 and BFTC-905.

[23] = test system: SUM149; test: Cell growth inhibition assay, SUM149 (breast HER2−); format: cell-based; settings: Homo sapiens, SUM149, 72 h, 3 days, read-out: Single agent IC50 (μM), mean ± STD
Description: as §1, §2, §3

[24] = test system: SW403; test: Cell growth inhibition assay, SW403 (colorectal); format: cell-based; settings: Homo sapiens, SW-403, 72 h, 3 days, read-out: Single agent IC50 (μM), mean ± STD
Description: as §1, §2, §3

[25] = test system: AU565; test: Cell growth inhibition assay, AU565 (breast HER2+); format: cell-based; settings: Homo sapiens, AU565, 72 h, 3 days, read-out: Single agent IC50 (μM), mean ± STD
Description: as §1, §2, §3

[26] = test system: BT474; test: Cell growth inhibition assay, BT474 (breast HER2+); format: cell-based; settings: Homo sapiens, BT-474, 72 h, 3 days, read-out: Single agent IC50 (μM), mean ± STD
Description: as §1, §2, §3

[27] = test system: HCC2218; test: Cell growth inhibition assay, HCC2218 (breast HER2+); format: cell-based; settings: Homo sapiens, HCC2218, 72 h, 3 days, read-out: Single agent IC50 (μM), mean ± STD
Description: as §1, §2, §3

[28] = test system: SKBR3; test: Cell growth inhibition assay, SKBR3 (breast HER2+); format: cell-based; settings: Homo sapiens, SK-BR-3, 72 h, 3 days, read-out: Single agent IC50 (μM), mean ± STD
Description: as §1, §2, §3

[29] = test system: BT474-J4; test: Cell apoptosis assay, DNA fragmentation, BT474-J4; format: cell-based, Human; settings: 48 hours, Roche Cell Death ELISA, combination at 2 to 1 molar ratio A:B (FIG. 2B)
Description: as §1, §5, §6

[30] = test system: HCC1419; test: Cell growth inhibition assay, HCC1419 (breast HER2+); format: cell-based; settings: Homo sapiens, HCC1419, 72 h, 3 days, read-out: Single agent IC50 (μM), mean ± STD
Description: as §1, §2, §3

[31] = test system: HER2 positive (HER2+) breast tumor lines; test: Cell growth inhibition assay, text summary over HER2+ breast lines; format: cell-based; settings: Homo sapiens; the HER2+ breast cancer lines listed in Table 1; read-out: IC50 as a single agent
Description: as §1, §2, §3

Row | SMILES | IC50 [1] | IC50 [2] | IC50 [3] | IC50 [4] | IC50 [5] | sensitivity as single agents, in words [6] | IC50 [7] | IC50 [8] | IC50 [9] | IC50 [11] | IC50 [12] | IC50 ([13]; Homo sapiens, SK-MEL-5, 72 h) | IC50 [15] | IC50 [16] | IC50 [17] | IC50 [18] | IC50 [19] | IC50 [20] | sensitivity to cell growth inhibition, in words [20] | IC50 [21] | also measured
1 | CS(=O)(=O)CCNCc1ccc(-c2ccc3ncnc(Nc4ccc(OCc5cccc(F)c5)c(Cl)c4)c3c2)o1 [Compound A, N-{3-Chloro-4-[(3-fluorobenzyl)oxy]phenyl}-6-[5-({[2-(methanesulphonyl)ethyl]amino}methyl)-2-furyl]-4-quinazolinamine] | 0.149 ± 0.205 µM | 4.28 ± 1.35 µM | > 10 µM | > 10 µM | < 1 µM | resistant | 7.18 ± 3.93 µM | 149 to 7180 nM | 0.138 ± 0.004 µM | 2.41 ± 1.57 µM | > 10 µM | 4.74 ± 1.08 µM | > 10 µM | 10.5 ± 2.77 µM | 2.64 ± 1.75 µM | 4.48 ± 1.47 µM | 4.11 ± 1.39 µM | > 10 µM | resistant | 4.28 ± 0.073 µM | IC50 [10]: 0.146 ± 0.035 µM; IC50 [14]: > 10 µM; apoptosis induction determined by DNA fragmentation [22]: induced apoptosis; IC50 [23]: 4.73 ± 1.37 µM; IC50 [24]: 5.36 ± 1.55 µM
2 | CC(=O)Nc1cccc(-n2c(=O)n(C3CC3)c(=O)c3c(Nc4ccc(I)cc4F)n(C)c(=O)c(C)c32)c1 [Compound B, N-{3-[3-cyclopropyl-5-(2-fluoro-4-iodo-phenylamino)-6,8-dimethyl-2,4,7-trioxo-3,4,6,7-tetrahydro-2H-pyrido[4,3-d]pyrimidin-1-yl]phenyl}acetamide] | 0.019 ± 0.005 µM | 0.075 ± 0.039 µM | 0.086 ± 0.007 µM | 0.196 ± 0.269 µM | > 1 µM | sensitive | 0.099 ± 0.053 µM | 3 to 99 nM | 0.461 ± 0.382 µM | > 1 µM | > 1 µM | ≤ 0.003 µM | > 1 µM | 0.059 ± 0.03 µM | 0.003 ± 0.002 µM | > 1 µM | 0.07 ± 0.042 µM | > 1 µM | resistant | 0.012 ± 0.003 µM | IC50 [25]: > 1 µM; IC50 [26]: > 1 µM; IC50 [27]: > 1 µM; IC50 [28]: > 1 µM; IC50 [13]: 0.003 µM; apoptosis induction determined by DNA fragmentation [29]: not active to induce apoptosis; IC50 [30]: > 1 µM; IC50 [31]: > 1000 nM; apoptosis induction determined by DNA fragmentation [22]: not active to induce apoptosis; IC50 [24]: 0.005 ± 0.004 µM
